Converted amounts (≈) assume the structure as drawn.
What was measured:
acid ceramidase = biological target: T1, acid ceramidase (Homo sapiens, UniProt Q13510); assay: Acid ceramidase inhibition, biochemical fluorescent assay with cell lysates overexpressing acid ceramidase, substrate Rbm14-12; details: substrate Rbm14-12 6.3 μM
T1 construct: Cell lysates overexpressing acid ceramidase were used as the enzyme source; expressed in transfected cells
T1 sequence (Q13510 22-395): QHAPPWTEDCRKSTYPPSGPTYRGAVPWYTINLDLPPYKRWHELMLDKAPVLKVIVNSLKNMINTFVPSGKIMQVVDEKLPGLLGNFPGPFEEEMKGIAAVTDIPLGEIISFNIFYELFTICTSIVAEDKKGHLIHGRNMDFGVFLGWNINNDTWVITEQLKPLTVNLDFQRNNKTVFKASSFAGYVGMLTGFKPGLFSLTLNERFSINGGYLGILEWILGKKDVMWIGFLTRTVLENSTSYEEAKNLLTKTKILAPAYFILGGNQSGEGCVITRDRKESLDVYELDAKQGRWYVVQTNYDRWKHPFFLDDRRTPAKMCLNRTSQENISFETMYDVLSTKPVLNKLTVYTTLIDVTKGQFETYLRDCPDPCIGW
Procedure: The ability of exemplary compounds to inhibit acid ceramidase was measured.
Cell lysates overexpressing acid ceramidase were used as the enzyme source for compound potency determination in a biochemical fluorescent assay. Briefly, compounds were preincubated with 10 μg protein of cell lysates in a dose-response manner for 1 hr at RT in the assay buffer containing 25 mM NaAC and 100 mM NaCl, pH 4.5. The reaction was initiated by the addition of substrate Rbm14-12 at a final concentration of 6.3 μM. The reaction was run at RT for 1 hr before it was stopped by the addition of the stopping buffer containing 20% methanol (v/v), 1 mg/ml NaIO4, 0.1 M glycine, pH 10.6. The samples were incubated with the stopping buffer at RT for 1 hr to allow the fluorescent product to be formed. Finally, the plate was read with SpectraMax i3 plate reader (Molecular Devices) at ex360 nm and em446 nm. Data were collected and used to determine the IC50 values of compounds by curve fitting to the four-parameter inhibition equation.

[1] = Compound solubility in water
[2] = pH 4.5, 1 hr preincubation at RT

IC50 (acid ceramidase; [2]) [nM]	solubility [1] [µg/mL]	IC50 (acid ceramidase; pH 4.5) [nM]	SMILES
< 200	16.3 (≈ 42.8 µM)	–	COc1cc(N2CCOCC2)cc2c1ncn2C(=O)NCCc1ccccc1 [Example 39, 4-Methoxy-6-morpholino-N-phenethyl-1H-benzo[d]imidazole-1-carboxamide]
< 200	9.1 (≈ 29.2 µM)	–	COc1cccc2c1ncn2C(=O)NCCOc1ccccc1 [Example 71, 4-Methoxy-N-(2-phenoxyethyl)-1H-benzo[d]imidazole-1-carboxamide]
< 200	2 (≈ 5.16 µM)	–	CN1CCN(c2cccc3c2ncn3C(=O)NCCC#Cc2ccccc2)CC1 [Example 352, 4-(4-Methylpiperazin-1-yl)-N-(4-phenylbut-3-yn-1-yl)-1H-benzo[d]imidazole-1-carboxamide]
–	21 (≈ 53.6 µM)	200 to 1000	CN1CCN(c2cccc3c2ncn3C(=O)NCCC2CCCC2(F)F)CC1 (stereo not drawn) [Example 259, N-(2-(2,2-Difluorocyclopentyl)ethyl)-4-(4-methylpiperazin-1-yl)-1H-benzo[d]imidazole-1-carboxamide]
< 200	21.9 (≈ 101 µM)	–	CCCCNC(=O)n1cnc2ccccc21 [Example 24, N-Butyl-1H-benzo[d]imidazole-1-carboxamide]
< 200	9 (≈ 25.8 µM)	–	COc1nc2c(C#N)cccc2n1C(=O)NCC1CCC(F)(F)CC1 [Example 139, 4-Cyano-N-((4,4-difluorocyclohexyl)methyl)-2-methoxy-1H-benzo[d]imidazole-1-carboxamide]
> 1000	17 (≈ 49.1 µM)	–	COc1nc2c(N3CCOCC3)cccc2n1C(=O)NCCC(C)C [Example 146, N-iso-Pentyl-2-methoxy-4-morpholino-1H-benzo[d]imidazole-1-carboxamide]
–	27 (≈ 69.3 µM)	< 200	O=C(NCCCc1ccccc1)n1cnc2c(N3CC4CNCC4C3)cccc21 (stereo not drawn) [Example 265, 4-(Hexahydropyrrolo[3,4-c]pyrrole-2(1H)-yl)-N-(3-phenylpropyl)-1H-benzo[d]imidazole-1-carboxamide]
200 to 1000	18 (≈ 47.3 µM)	–	COc1nc2ccc(N3CCOCC3)cc2n1C(=O)NCCc1ccccc1 [28 & 29a]
–	40 (≈ 89.6 µM)	200 to 1000	CN1CCN(C2CN(c3cccc4c3ncn4C(=O)NCCC3CCC(F)(F)C3)C2)CC1 (stereo not drawn) [Example 318, N-(2-(3,3-Difluorocyclopentyl)ethyl)-4-(3-(4-methylpiperazin-1-yl)azetidin-1-yl)-1H-benzo[d]imidazole-1-carboxamide]
> 1000	15.4 (≈ 52.9 µM)	–	COc1cccc2c1nc(OC)n2C(=O)NCCC(C)C [Example 115, N-iso-Pentyl-2,4-dimethoxy-1H-benzo[d]imidazole-1-carboxamide]
–	2 (≈ 5.66 µM)	< 200	N#Cc1cc(N2CCOCC2)c2ncn(C(=O)NCCCC3CC3)c2c1 [Example 178, 6-Cyano-N-(3-cyclopropylpropyl)-4-morpholino-1H-benzo[d]imidazole-1-carboxamide]
> 1000	14.1 (≈ 46.5 µM)	–	CCOc1nc2c(OC)cccc2n1C(=O)NCCC1CC1 [Example 116, N-(2-Cyclopropylethyl)-2-ethoxy-4-methoxy-1H-benzo[d]imidazole-1-carboxamide]
200 to 1000	22.9 (≈ 66.9 µM)	–	Cc1cc(C2CCN(C)CC2)c2ncn(C(=O)NCCC(C)C)c2c1 [Example 112a]
< 200	1 (≈ 3.41 µM)	–	O=C(NCCCCc1ccccc1)n1cnc2ccccc21 [Example 6, N-(4-Phenylbutyl)-1H-benzo[d]imidazole-1-carboxamide]
< 200	22.7 (≈ 52.7 µM)	–	CN1CCC(c2cc(C(F)(F)F)cc3c2ncn3C(=O)NCCc2ccccc2)CC1 [Example 54, 4-(1-Methylpiperidin-4-yl)-N-phenethyl-6-(trifluoromethyl)-1H-benzo[d]imidazole-1-carboxamide]
200 to 1000	3.6 (≈ 9.46 µM)	–	COc1nc2cc(N3CCOCC3)ccc2n1C(=O)NCCc1ccccc1 [Example 29b, 2-methoxy-5-morpholino-N-phenethyl-1H-benzo[d]imidazole-1-carboxamide]

IC50 (acid ceramidase; [2]) [nM]	solubility [1] [µg/mL]	IC50 (acid ceramidase; pH 4.5) [nM]	SMILES
< 200	26.5 (≈ 70 µM)	–	CN1CCC(Oc2cccc3c2ncn3C(=O)NCCc2ccccc2)CC1 [Example 86, 4-((1-Methylpiperidin-4-yl)oxy)-N-phenethyl-1H-benzo[d]imidazole-1-carboxamide]
< 200	8.6 (≈ 23 µM)	–	COc1nc2cc(-c3cncnc3)ccc2n1C(=O)NCCc1ccccc1 [Example 31b, 2-methoxy-N-phenethyl-5-(pyrimidin-5-yl)-1H-benzo[d]imidazole-1-carboxamide]
200 to 1000	15.4 (≈ 62.3 µM)	–	CC(C)OCCNC(=O)n1cnc2ccccc21 [Example 48, N-(2-iso-Propoxyethyl)-1H-benzo[d]imidazole-1-carboxamide]
200 to 1000	23.4 (≈ 80.3 µM)	–	CCC(C)CNC(=O)n1c(OC)nc2c(OC)cccc21 (stereo not drawn) [Example 117, 2,4-Dimethoxy-N-(2-methylbutyl)-1H-benzo[d]imidazole-1-carboxamide]
< 200	15 (≈ 56.3 µM)	–	[2H]c1nc2ccccc2n1C(=O)NCCc1ccccc1 [Example 128, N-Phenethyl-1H-benzo[d]imidazole-2-d-1-carboxamide]
–	31 (≈ 79.2 µM)	200 to 1000	CN1CCN(c2cccc3c2ncn3C(=O)NCCCC2CC(F)(F)C2)CC1 [Example 260, N-(3-(3,3-Difluorocyclobutyl)propyl)-4-(4-methylpiperazin-1-yl)-1H-benzo[d]imidazole-1-carboxamide]
–	26 (≈ 60.4 µM)	200 to 1000	N#CCCN1CCN(c2cccc3c2ncn3C(=O)NCCC2CCC(F)(F)C2)CC1 (stereo not drawn) [Example 288, 4-(4-(2-Cyanoethyl)piperazin-1-yl)-N-(2-(3,3-difluorocyclopentyl)ethyl)-1H-benzo[d]imidazole-1-carboxamide]
< 200	15 (≈ 50.8 µM)	–	COc1ccc2ncn(C(=O)NCCc3ccccc3)c2c1 [Example 25b, 6-methoxy-N-phenethyl-1H-benzo[d]imidazole-1-carboxamide]
–	34 (≈ 86.9 µM)	< 200	CN1CCN(c2cccc3c2ncn3C(=O)NCCC2CCC(F)(F)C2)CC1 (stereo not drawn) [Example 258, N-(2-(3,3-Difluorocyclopentyl)ethyl)-4-(4-methylpiperazin-1-yl)-1H-benzo[d]imidazole-1-carboxamide]
–	39 (≈ 113 µM)	> 1000	COc1nc2cc(C3CCN(C)CC3)ccc2n1C(=O)NCC(C)C [Example 193, N-iso-Butyl-2-methoxy-5-(1-methylpiperidin-4-yl)-1H-benzo[d]imidazole-1-carboxamide]
< 200	40 (≈ 123 µM)	–	CCCCNC(=O)n1c(OC)nc2ccc(-c3cncnc3)nc21 [Example 85a, N-Butyl-2-methoxy-5-(pyrimidin-5-yl)-3H-imidazo[4,5-b]pyridine-3-carboxamide]
< 200	–	–	Cc1nc2ccccc2n1C(=O)NCCc1ccccc1 [Example 2, 2-Methyl-N-phenethyl-1H-benzo[d]imidazole-1-carboxamide]
< 200	–	–	CCOc1nc2cccnc2n1C(=O)NCCC(C)C [Example 113, 2-Ethoxy-N-iso-pentyl-3H-imidazo[4,5-b]pyridine-3-carboxamide]
–	27.5 (≈ 75.6 µM)	–	CC(C)CCNC(=O)n1cnc2c(N3CCN(C)CC3)cc(Cl)cc21 [Example 112, 6-Chloro-N-iso-pentyl-4-(4-methylpiperazin-1-yl)-1H-benzo[d]imidazole-1-carboxamide]
< 200	–	–	COc1nc2ncccc2n1C(=O)NCCCOc1ccccc1 [Example 129, 2-Methoxy-N-(3-phenoxypropyl)-1H-imidazo[4,5-h]pyridine-1-carboxamide]
200 to 1000	–	–	COCCNC(=O)n1c(OC)nc2ncccc21 [Example 95, 2-Methoxy-N-(2-methoxyethyl)-1H-imidazo[4,5-b]pyridine-1-carboxamide]
–	23 (≈ 62.1 µM)	–	Cn1c(=O)n(C(=O)NCCCCn2ccc(C(C)(C)C)n2)c2ncccc21 [Example 135b, N-(4-(3-(tert-butyl)-1H-pyrazol-1-yl)butyl)-1-methyl-2-oxo-1,2-dihydro-3H-imidazo[4,5-b]pyridine-3-carboxamide]

SMILES	IC50 (acid ceramidase; [2]) [nM]	solubility [1] [µg/mL]	IC50 (acid ceramidase; pH 4.5) [nM]
CN1C2CC1CN(c1cccc3c1ncn3C(=O)NCCCc1ccccc1)C2 [Example 243, 4-(6-Methyl-3,6-diazabicyclo[3.1.1]heptan-3-yl)-N-(3-phenylpropyl)-1H-benzo[d]imidazole-1-carboxamide]	–	28 (≈ 71.9 µM)	< 200
CN1CC2CCC(C1)N2c1cccc2c1ncn2C(=O)NCCCc1ccccc1 [Example 241, 4-(3-Methyl-3,8-diazabicyclo[3.2.1]octan-8-yl)-N-(3-phenylpropyl)-1H-benzo[d]imidazole-1-carboxamide]	–	25 (≈ 62 µM)	< 200
